Literature values as cited in patent publication US20070213354A1, “Compositions and Methods for the Treatment of Multiple Sclerosis” (AmpliMed Corporation, priority 2006, published 2007).
pIC50: −log10 of the molar value.

How the values were obtained:
neonatal rat myocytes = details: 1 hour drug concentration that reduces ATP/protein ratio to 50% of untreated control myocytes; read-out: IC50 Cardiotox; cited from earlier work
L1210 sensitive = details: murine leukemia L1210 sensitive to standard cytotoxic agents; MTT, continuous exposure; cited from earlier work
L1210 resistant = details: murine leukemia L1210 resistant, P-glycoprotein producing; MTT, continuous exposure; cited from earlier work

For `COc1ccc2c3c4c(cccc4cc2c1)C(=O)N(CCN(C)C)C3=O` [*9-OCH3], the pIC50 (neonatal rat myocytes) is given as > 5.59, the pIC50 (L1210 sensitive) is given as 7.27 and the pIC50 (L1210 resistant) is given as 7.27.
In the case of `CN(C)CCN1C(=O)c2cccc3cc4cc(O)ccc4c(c23)C1=O` [*9-OH], the pIC50 (neonatal rat myocytes) is listed as 6.39, the pIC50 (L1210 sensitive) is listed as 8.30 and the pIC50 (L1210 resistant) is listed as 8.15.
For `Cc1ccc2cc3cccc4c3c(c2c1)C(=O)N(CCN(C)C)C4=O` [*10-CH3], the pIC50 (neonatal rat myocytes) is given as 6.00, the pIC50 (L1210 sensitive) is given as 7.39 and the pIC50 (L1210 resistant) is given as 7.27.
For `CN(C)CCN1C(=O)c2cccc3cc4ccc(C#N)cc4c(c23)C1=O` [*10-CN], the pIC50 (neonatal rat myocytes) is given as 6.98, the pIC50 (L1210 sensitive) is given as 7.82 and the pIC50 (L1210 resistant) is given as 7.89.
In the case of `CN(C)CCN1C(=O)c2cccc3cc4ccc(Cl)cc4c(c23)C1=O` [*10-Cl], the pIC50 (neonatal rat myocytes) is listed as 6.11, the pIC50 (L1210 sensitive) is listed as 8.30 and the pIC50 (L1210 resistant) is listed as 8.10.
In the case of `CN(C)CCN1C(=O)c2cccc3cc4ccc(I)cc4c(c23)C1=O` [*10-I], the pIC50 (neonatal rat myocytes) is listed as 5.32, the pIC50 (L1210 sensitive) is listed as 6.51 and the pIC50 (L1210 resistant) is listed as 7.28.
In the case of `CN(C)CCN1C(=O)c2cccc3cc4ccc(N)cc4c(c23)C1=O` [*10-NH2], the pIC50 (neonatal rat myocytes) is given as 6.03, the pIC50 (L1210 sensitive) is given as 8.52 and the pIC50 (L1210 resistant) is given as 8.52.
In the case of `CN(C)CCN1C(=O)c2cccc3cc4ccc(NC(=O)C(C)(C)C)cc4c(c23)C1=O` [*10-NHCOC(CH3)3], the pIC50 (neonatal rat myocytes) is listed as 4.96, the pIC50 (L1210 sensitive) is listed as 6.70 and the pIC50 (L1210 resistant) is listed as 6.70.
In the case of `CC(=O)Nc1ccc2cc3cccc4c3c(c2c1)C(=O)N(CCN(C)C)C4=O` [*10-NHCOCH3], the pIC50 (neonatal rat myocytes) is given as 5.11, the pIC50 (L1210 sensitive) is given as 7.31 and the pIC50 (L1210 resistant) is given as 6.66.
In the case of `CN(C)CCN1C(=O)c2cccc3cc4ccc([N+](=O)[O-])cc4c(c23)C1=O` [*10-NO2], the pIC50 (neonatal rat myocytes) is given as 6.10, the pIC50 (L1210 sensitive) is given as 7.60 and the pIC50 (L1210 resistant) is given as 7.60.
In the case of `CCOc1ccc2cc3cccc4c3c(c2c1)C(=O)N(CCN(C)C)C4=O` [*10-OC2H5], the pIC50 (neonatal rat myocytes) is given as 4.95, the pIC50 (L1210 sensitive) is given as 7.60 and the pIC50 (L1210 resistant) is given as 7.30.
In the case of `COc1ccc2cc3cccc4c3c(c2c1)C(=O)N(CCN(C)C)C4=O` [*10-OCH3], the pIC50 (neonatal rat myocytes) is listed as 5.04, the pIC50 (L1210 sensitive) is listed as 7.68 and the pIC50 (L1210 resistant) is listed as 7.28.
In the case of `CN(C)CCN1C(=O)c2cccc3cc4ccc(O)cc4c(c23)C1=O` [*10-OH], the pIC50 (neonatal rat myocytes) is given as < 4.57, the pIC50 (L1210 sensitive) is given as 6.72 and the pIC50 (L1210 resistant) is given as 6.27.
For `CN(C)CCN1C(=O)c2cccc3cc4cccc(Cl)c4c(c23)C1=O` [*11-Cl], the pIC50 (neonatal rat myocytes) is listed as 5.08, the pIC50 (L1210 sensitive) is listed as 5.75 and the pIC50 (L1210 resistant) is listed as 6.21.
For `CN(C)CCN1C(=O)c2cccc3cc4cccc(N)c4c(c23)C1=O` [*11-NH2], the pIC50 (neonatal rat myocytes) is given as 4.57, the pIC50 (L1210 sensitive) is given as 6.17 and the pIC50 (L1210 resistant) is given as 6.17.
For `CC(=O)Nc1cccc2cc3cccc4c3c(c12)C(=O)N(CCN(C)C)C4=O` [*11-NHCOCH3], the pIC50 (neonatal rat myocytes) is listed as < 4.65, the pIC50 (L1210 sensitive) is listed as 6.61 and the pIC50 (L1210 resistant) is listed as 5.61.
In the case of `CN(C)CCN1C(=O)c2cccc3cc4cccc([N+](=O)[O-])c4c(c23)C1=O` [*11-NO2], the pIC50 (neonatal rat myocytes) is listed as 5.06, the pIC50 (L1210 sensitive) is listed as 7.64 and the pIC50 (L1210 resistant) is listed as 7.30.
For `CN(C)CCN1C(=O)c2cccc3cc4cccc(O)c4c(c23)C1=O` [*11-OH], the pIC50 (neonatal rat myocytes) is listed as 4.81, the pIC50 (L1210 sensitive) is listed as 6.72 and the pIC50 (L1210 resistant) is listed as 6.72.
In the case of `COc1cccc2c1C(=O)c1c(O)c3c(c(O)c1C2=O)C[C@@](O)(C(=O)CO)C[C@@H]3O[C@H]1C[C@H](N)[C@H](O)[C@H](C)O1` [Doxorubicin, reference compound], the pIC50 (neonatal rat myocytes) is given as 4.99, the pIC50 (L1210 sensitive) is given as 7.46 and the pIC50 (L1210 resistant) is given as 5.41.
